Measurements reported in US20110207745A1 (priority 2009, published 2011).
≈ marks a conversion by molar mass, not a printed value. Where two headings read alike, the source gives them in different places.

Key:
[1] = Solubility in water and aqueous acid media; assay type: physicochemical; conditions: thermodynamic from solid
Procedure: A weighed sample is treated with aliquots of the test solvent at room temperature or elevated temperature. Complete dissolution of the test material is determined by visual inspection. Solubility is estimated based on the total solvent used to provide complete dissolution. The actual solubility may be greater than the value calculated because of the use of solvent aliquots that were too large or due to a slow rate of dissolution. […] If complete dissolution is achieved as a result of only one aliquot addition, the solubility is expressed as “greater than”. Solubility of a salt may be expressed as the mass of salt dissolved per unit volume of solution, (denoted as, for example, “mg/mL”), or as the free base equivalent (denoted as, for example, “mgA/mL”).
(§1) Solubility and Dissolution Rate Data.

[2] = Solubility in simulated biological media; assay type: physicochemical; conditions: thermodynamic from solid, mean ± SD, n = 2
Excerpt: as §1
(§2) Solubility and Dissolution Rate Data. […]

[3] = Equilibrium solubility at 25° C.; assay type: physicochemical; conditions: thermodynamic from solid
Excerpt: as §2

[4] = HPLC area %, listed as Amorphous Mono-HCl Salt of Compound A1
Procedure: (§3) Stress Experiments. Solids are stressed under different temperature or relative humidity (RH) environments for a measured time period. Specific RH values are achieved by placing the sample inside sealed chambers containing saturated salt solutions, as known in the art. The salt solutions are selected and prepared following an ASTM standard procedure. Samples are analyzed by XRPD immediately after removal from the stress environment.
Analyses are carried out on an Agilent® model 1100 high performance liquid chromatograph using gradient elution on a reversed phase column utilizing ultraviolet (UV) detection. Approximately 25 mg of the sample is weighed accurately and dissolved in methanol/water/trifluoroacetic acid (35:65:0.05) to a volume of 50 mL. The sample solution is analysed using the conditions specified below:
The content of the drug and related substances are quantified by area (%).
Chemical Stability. The chemical stability of Form I of the mono-HCl salt of Compound A1 was assessed by stressing the material at various temperature/relative humidity/light conditions, then analyzing by HPLC.
Chemical Stability Data. The chemical stability of a sample of Form I of the sesquifumarate salt of Compound A1 was assessed by stressing the material at various temperature/relative humidity/light conditions, then analyzing by HPLC.

[5] = for Water content: 3 days, KF
Procedure: as §3
Modulated differential scanning calorimetry data are obtained on a TA Instruments differential scanning calorimeter 2920 equipped with a refrigerated cooling system (RCS). The sample is placed into an aluminum DSC pan, and the weight is accurately recorded. The pan is covered with a lid with is either crimped or uncrimped. MDSC data are obtained using a modulation amplitude of +/−0.8° C. and a 60 second period with an underlying heating rate of about 2° C./min. The temperature and the heat capacity are calibrated using indium metal and sapphire as the calibration standards, respectively. The reported glass transition temperature is obtained from the inflection of the step change in the reversible heat flow versus temperature curve.
Physical Stability. Physical stability measurements were performed on the amorphous form of the mono-HCl salt of Compound A1. The amorphous HCl salt prepared by spray drying was set down under two conditions (40° C./75% RH and 25° C./60% RH) for physical stability studies.
To investigate the impact of water on the amorphous mono-HCl salt, the material was stored at various RH conditions controlled by saturated salt solutions. Each material was checked by PLM (morphology), KF (water content), and mDSC (Tg value) after 3 days.

[6] = Dissociation constant (pKa); assay type: physicochemical; conditions: piperazine nitrogen of free base
[7] = Partition coefficient LogD; assay type: physicochemical; conditions: pH 7.4; free base
rat = test: Punished responding procedure (modified Geller-Seifter conflict test); conditions: for Rate of Responding: Punished responding / Rate of Responding: Unpunished responding: 60 minute pretreatment
Excerpt: Method. In the conflict test, hungry animals were trained to lever-press for food delivery in a standard operant chamber under 2 conditions. In the first condition, referred to as the unsuppressed component, food was delivered on average after 17 lever-presses were made (also called a VR17 schedule of reinforcement). In the second condition, referred to as the suppressed component and signaled by flashing lights inside the operant chamber, food was also delivered following an average of 17 lever-presses, but electric shock was additionally delivered to the floor of the cage under a separate VR17 schedule. Daily sessions consisted of 5 alternating presentations of each component type: suppressed (3 minutes in duration) and unsuppressed (2 minutes in duration). The number of lever presses emitted in the suppressed component was obviously low relative to the unsuppressed component.
Drug Administration and Preparation. […] Monday and Wednesday were washout/baseline days.
Apparatus. Standard 2-lever operant chambers were used (Med Associates). The chambers were fitted with 2 retractable response levers and a stimulus lamp over each of the 2 levers. A pellet dispenser delivered 45 mg food pellets, (Bio Serv) to a cup located inside of the chamber below and between the 2 response levers. A lamp at the top and back of the chamber served as houselights. The grid floors of the operant chambers were interfaced to shock generators and scramblers (Med Associates). All events in the chambers were controlled and monitored by a microprocessor.
Procedures. There were 2 components in the procedure: 1) an unsuppressed responding component (unpunished) with 2 minutes in duration; and 2) a suppressed responding component (punished) with 3 minutes in duration.
In the unpunished component, the houselights and both stimulus lamps over the response levers were turned on, the lever on the left-hand side of the chamber extended, and a food pellet was delivered following an average of 17 responses on the lever in the chamber (range 3 to 40 responses)—a variable-ratio 17 schedule (VR17).
In the punished component (which followed the unpunished component), the right-hand lever was extended into the chamber; the stimulus lamps and houselights were turned on and off at 1 second intervals, in succession, which served as a cue for this component; and food was available under a VR17 schedule, but was accompanied by an electrical current (0.5 second duration) that was delivered to the grid floor of the chamber under an independent VR17 schedule. The level of the current was adjusted for each individual subject until responding was reduced in the punished component to a level that was about 5% to 10% that of the unpunished component, and ranged from 0.2 mA to 0.75 mA. Unpunished and punished components were separated by 10 second time-out periods in which both response levers were retracted and all stimulus lamps turned off. 2 minute unpunished and 3 minute punished components alternated until 5 of each were completed. Daily sessions always began with the unpunished responding component. […] Several doses were tested on a given test day in different subjects. Each dose, then, was tested in different sub-set of rats.
Data Analysis. The dependent variables recorded were the rate of responding in unpunished and punished components (total responses/total time under the component) and the number of shocks delivered.

[8] = 0.1M phosphate buffer, pH 7.5, aqueous buffer, initial pH 7.5
[9] = FeSSIF (fed-state simulated intestinal fluid), pH 5.03, fessif, initial pH 5.03
[10] = SGF (simulated gastric fluid), pH 1.3, simulated gastric fluid, initial pH 1.3
[11] = simulated gastric fluid (SGF), pH 1.3, simulated gastric fluid, SGF (simulated gastric fluid), initial pH 1.3

## CCN(CC)C(=O)c1ccc([C@H](c2cccc(N)c2)N2CCN(Cc3ccc(F)cc3)CC2)cc1 [4-{(R)-(3-aminophenyl)[4-(4-fluorobenzyl)piperazin-1-yl]methyl}-N,N-diethylbenzamide]
[1]; 0.1M phosphate acid, pH 3.3, aqueous buffer, 0.1M phosphate acid, pH=3.3, read-out: solubility in 0.1M phosphate acid
  solubility: > 40 mg/mL
[1]; 0.1M phosphate acid, pH 3.5, aqueous buffer, 0.1M phosphate acid, pH=3.5, read-out: solubility in 0.1M phosphate acid
  solubility: 12 mg/mL (≈ 25.3 mM)
[1]; 0.1 M phosphoric acid, pH 3.3, aqueous buffer, ambient temperature, pH of about 3.3 (0.1 M phosphoric acid), read-out: solubility in water (0.1 M phosphoric acid)
  solubility: > 40 mg/mL
[1]; 0.1 M phosphoric acid, pH 3.5, aqueous buffer, ambient temperature, pH of about 3.5 (0.1 M phosphoric acid), read-out: solubility in water (0.1 M phosphoric acid)
  solubility: ~12 mg/mL (≈ 25.3 mM)
[1]; 0.1N HCl, pH 2, simulated gastric fluid, 0.1N HCl, pH about 2, read-out: solubility in 0.1N HCl
  solubility: 24.9 mg/mL (≈ 52.5 mM)
[1]; water, pH 3.8, water, ambient temperature, water with a pH of about 3.8, read-out: solubility in water
  solubility: ~24 mg/mL (≈ 50.6 mM)
[1]; water, pH 3.8, water, water, pH=3.8, read-out: solubility in water
  solubility: 24 mg/mL (≈ 50.6 mM)
[1]; water, pH 4.2, water, ambient temperature, water with a pH of about 4.2, read-out: solubility in water
  solubility: > 41 mg/mL
[1]; water, pH 4.2, water, water, pH=4.2, read-out: solubility in water
  solubility: > 41 mg/mL
[2]; [8]
  solubility at 3 h: 0.29 mg/mL (≈ 0.611 mM)
  solubility at 24 h: 0.1 mg/mL (≈ 0.211 mM)
[2]; [9]
  solubility at 3 h: 3.4 mg/mL (≈ 7.16 mM)
  solubility at 24 h: 3.06 mg/mL (≈ 6.45 mM)
[2]; [10]
  solubility at 3 h: 23 mg/mL (≈ 48.5 mM)
  solubility at 24 h: 22 mg/mL (≈ 46.4 mM)
[2]; [11]
  solubility at 3 h: 23.1 ± 0.12 mg/mL (≈ 48.7 mM)
  solubility at 24 h: 21.9 ± 0.23 mg/mL (≈ 46.1 mM)
[3]; 0.1 M citrate buffer, aqueous buffer, pH 4.5, Citrate 0.1M
  solubility thermodynamic: 15.6 mg/mL (≈ 32.9 mM)
[3]; 0.1 M phosphate buffer, aqueous buffer, pH 7.8, Phosphate 0.1M
  solubility thermodynamic: 0.16 mg/mL (≈ 0.337 mM)
[3]; aqueous buffer, 0.1N NaOH
  solubility thermodynamic: 0.092 mg/mL (≈ 0.194 mM)
[3]; simulated gastric fluid, 0.1N HCl
  solubility thermodynamic: 21.6 mg/mL (≈ 45.5 mM)
[3]; Pure water
  solubility thermodynamic: 8.7 mg/mL (≈ 18.3 mM)
[4]; 60° C./80% RH, 2 weeks
  % Purity after 60° C./80% RH, 2 wks: 94.4%
[4]; 60° C./80% RH, 4 weeks
  % Purity after 60° C./80% RH, 4 wks: 94.5%
[4]; 80° C., 2 weeks
  % Purity after 80° C., 2 wks: 98.7%
[4]; 80° C., 4 weeks
  % Purity after 80° C., 4 wks: 98.6%
[4]; Photostability 3X ICH conditions
  Purity after Photostability 3X ICH conditions: 82.3%
[4]; initial, before storage
  Initial Purity: 98.8%
[5]
  physical stability: physically stable
  physical stability (appearance): deliquesced and became brown in color
[5]; 23.1% RH (saturated KOAc)
  Water content: 3.2%
[5]; 43.3% RH (saturated K2CO3)
  Water content: 5.0%
[5]; 54.4% RH (saturated Mg(NO3)2)
  Water content: 6.2%
[5]; 75.5% RH (saturated NaCl)
  Water content: 8.2%
[5]; 85.1% RH (saturated KCl), listed as Amorphous Mono-HCl Salt of Compound A1
  Water content: 9.5%
[5]; 85.1% RH (saturated KCl), listed as amorphous mono-HCl salt
  Water content: 9.5%
[5]; 97.3% RH (saturated K2SO4)
  Water content: 14.7%
[5]; after 17 days at 25° C./60% RH (open)
  water content (Karl-Fisher) of the resulting material: 6.1%
[5]; initial material, before storage
  water content of the initial material: about 2.8%

## CCN(CC)C(=O)c1ccc([C@H](c2cccc(N)c2)N2CCN(Cc3ccc(F)cc3)CC2)cc1 [Compound A1, 4-{(R)-(3-aminophenyl)[4-(4-fluorobenzyl)piperazin-1-yl]methyl}-N,N-diethylbenzamide]
[6]
  pKa: 7.26
[7]
  logD: 2.53
rat; observations of test subjects in their home cage
  sedative/hyperactive properties: does not possess sedative/hyperactive properties
rat; rat, 0.21 μmol/kg
  efficacy in the model: not effective
rat; rat, 0.21 μmol/kg by mouth
  Percent of Control: Punished responding: 107 ± 19.3% of Control
  Percent of Control: Unpunished responding: 103 ± 1.63% of Control
  Rate of Responding: Punished responding: 0.11 ± 0.02
  Rate of Responding: Unpunished responding: 2.06 ± 0.11
rat; rat, 0.63 μmol/kg by mouth
  Percent of Control: Punished responding: 273 ± 39.2% of Control
  Percent of Control: Unpunished responding: 92.1 ± 5.12% of Control
  Rate of Responding: Punished responding: 0.24 ± 0.03
  Rate of Responding: Unpunished responding: 2.02 ± 0.14
rat; rat, 2.1 μmol/kg by mouth
  Percent of Control: Punished responding: 298 ± 132% of Control
  Percent of Control: Unpunished responding: 106 ± 5.60% of Control
  Rate of Responding: Punished responding: 0.18 ± 0.04
  Rate of Responding: Unpunished responding: 1.95 ± 0.15
rat; rat, 2.11 μmol/kg
  increase in punished responding (maximally efficacious dose): about 300%
rat; rat, 6.3 μmol/kg by mouth
  Percent of Control: Punished responding: 207 ± 67.2% of Control
  Percent of Control: Unpunished responding: 106 ± 2.94% of Control
  Rate of Responding: Punished responding: 0.17 ± 0.03
  Rate of Responding: Unpunished responding: 1.92 ± 0.13
rat; rat, 21.1 μmol/kg by mouth
  Percent of Control: Punished responding: 272 ± 100% of Control
  Percent of Control: Unpunished responding: 95.5 ± 4.08% of Control
  Rate of Responding: Punished responding: 0.20 ± 0.04
  Rate of Responding: Unpunished responding: 1.69 ± 0.12
rat; rat, at the doses tested (0.21 to 21.1 μmol/kg)
  effect on unpunished responding: did not significantly decrease
